Experimental findings from PMC6254274, “Cytotoxic Components of Pereskia bleo (Kunth) DC. (Cactaceae) Leaves” (Molecules, 2009) are described below.

Where “and” joins values, the source holds several entries; their conditions need not be identical. Equal values may be shown once. Read-outs that look alike come from different tables or passages of the source.

Data set [1] deals with human colon carcinoma cell line (HCT 116). The experiment in a line: In vitro Neutral Red cytotoxicity assay, HCT 116. It counts as cell-based. The following applies: for IC50: read-out: Cytotoxicity (IC50) HCT 116. The source says:
(§1) No effect due to the DMSO was observed. Doxorubicin was used as the positive control. The well containing untreated cells was the negative control.
(§2) Cytotoxicity of each sample is expressed as IC50 value.

In data set [2] the test system is human hormone-dependent breast carcinoma cell line (MCF7). The experiment in a line: In vitro Neutral Red cytotoxicity assay, MCF7. Type of data set: cell-based. The following applies: for IC50: read-out: Cytotoxicity (IC50) MCF7.
Text: The well containing untreated cells was the negative control.
as §2

For data set [3], the system named is human cervical carcinoma cell line (CasKi). The experiment in a line: In vitro Neutral Red cytotoxicity assay, CasKi. Type of data set: cell-based. The following applies: 72 h; for IC50: read-out: Cytotoxicity (IC50) CasKi.
Text: as §1, §2

Data set [4] can be described thus: In vitro Neutral Red cytotoxicity assay, MRC-5. Type of data set: cell-based, human. The following applies: human.
Text: as §1, §2

The test system of data set [5] is human nasopharyngeal epidermoid carcinoma cell line (KB). The experiment in a line: In vitro Neutral Red cytotoxicity assay, KB. The following applies: 72 h; for IC50: read-out: Cytotoxicity (IC50) KB. Type of data set: cell-based.
Text: as §1, §2

The subject of data set [6] is human lung carcinoma cell line (A549). The experiment in a line: In vitro Neutral Red cytotoxicity assay, A549. The following applies: for IC50: read-out: Cytotoxicity (IC50) A549. The method, then:
The in vitro cytotoxicity assay was carried out using a Neutral Red cytotoxicity assay as previously described by Borenfreund and Puerner with some modifications; this test determines the accumulation of the Neutral Red dye in the lysosomes of viable and uninjured cells.
Human nasopharyngeal epidermoid carcinoma cell line (KB), human cervical carcinoma cell line (CasKi), human colon carcinoma cell line (HCT 116), human hormone-dependent breast carcinoma cell line (MCF7), human lung carcinoma cell line (A549) and non-cancer human fibroblast cell line (MRC-5) were purchased from the American Tissue Culture Collection (ATCC, USA). KB cells were maintained in Medium 199 (Sigma), CasKi, A549 and MCF7 cells in RPMI 1640 medium (Sigma), HCT 116 in McCOY’S 5A Medium (Sigma) and MRC-5 cells in EMEM (Eagle Minimum Essential Medium) (Sigma), supplemented with 10% foetal bovine serum (FBS, PAA Lab, Austria), 100 µg/mL penicillin or streptomycin (PAA Lab, Austria) and 50 µg/mL of fungizone (PAA Lab, Austria). The cells were cultured in a 5% CO2 incubator (Shel Lab water-jacketed) kept at 37°C in a humidified atmosphere.
The Neutral Red cytotoxicity assay is based on the initial protocol described by Borenfreund and Puerner with some modifications. Briefly, the cells (1x10^4/well) were seeded in 96-well microtiter plates (Nunc) and allowed to grow for 24 hours before treatment. After 24 hours of incubation, the cells were treated with six different concentrations (0.1-100 µg/mL) of test compounds, in three replicates. The plates were further incubated for 72 h at 37°C in a 5% CO2 incubator. A stock solution was initially obtained by dissolving the test compounds in DMSO. Further dilution to different tested concentrations were then carried out ensuring that the final concentration of DMSO in the test and control wells was not in excess of 1% (v/v). […] The well containing untreated cells was the negative control. At the end of the incubation period, the media were replaced with medium containing 50 µg/mL of Neutral Red. The plates were incubated for another 3 hours to allow for uptake of the vital dye into the lysosomes of viable and […] cells. After the incubation period, the media were removed and cells were washed with the neutral red washing solution. The dye was eluted from the cells by adding 200 µL of Neutral Red resorb solution and incubated for 30 minutes at room temperature with rapid agitation on a microtiter plate shaker. Dye absorbance was measured at 540 nm using a spectrophotometer ELISA plate reader. The average data from triplicates were expressed in terms of killing percentage relative to negative control. The percentage of inhibition (%) of each of the test samples was calculated according to the following formula: [drawing 1] where OD control: Optical Density of negative control; OD sample: Optical Density of sample
Cytotoxicity of each sample is expressed as IC50 value. The IC50 value is the concentration of test compounds that cause 50 % inhibition or cell death, averaged from the three experiments, and was obtained by plotting the percentage inhibition versus concentration of test compounds. […] However, we recognized that whether an IC50 value corresponds to a significant or non-significant cytotoxicity depends on the sensitivity of the cell line.

For data set [7], the system named is non-cancer human fibroblast cell line (MRC-5). The experiment in a line: In vitro Neutral Red cytotoxicity assay, MRC-5. It counts as cell-based. The following applies: MRC-5 cells, 72 h.
Text: as §1, §2

The mark [8] stands for this setting: Homo sapiens, HCT 116 cells, 72 h, Neutral Red.
[9] abbreviates: Homo sapiens, HCT 116 cells, 72 h, Neutral Red, value in parentheses.
Where [10] appears, read: Homo sapiens, MCF7 cells, 72 h, Neutral Red.
The mark [11] stands for this setting: Homo sapiens, MCF7 cells, 72 h, Neutral Red, value in parentheses.
Where [12] appears, read: Homo sapiens, Ca-Ski, CasKi cells, Neutral Red.
The mark [13] stands for this setting: Homo sapiens, Ca-Ski, CasKi cells, Neutral Red, value in parentheses.
The mark [14] stands for this setting: MRC-5 cells (non-cancer fibroblast cell line).
[15] abbreviates: MRC-5 cells (non-cancer fibroblast cell line), value in parentheses.
[16] abbreviates: Homo sapiens, KB cells, Neutral Red.
The mark [17] stands for this setting: Homo sapiens, KB cells, Neutral Red, value in parentheses.

As a reminder, the IC50 is the concentration that gives 50% inhibition.

In the case of `CC(C)(C)c1ccc(O)c(C(C)(C)C)c1` [2,4-di tert butylphenol (5), 2,4-di-tert-butylphenol], the half-inhibitory concentration (IC50) stood at 29 µg/mL in data set [1] (setting [8]); 141 µM in data set [1] (setting [9]); 5.75 µg/mL in data set [2] (setting [10]); 27.9 µM in data set [2] (setting [11]); 4.5 µg/mL in data set [3] (setting [12]); 21.8 µM in data set [3] (setting [13]). The IC50 in data set [5] (setting [16]) is 0.81 µg/mL; in data set [5] (setting [17]) it was 3.93 µM; in data set [6] (Homo sapiens, A549, 72 h) it was 6 µg/mL and 29.1 µM. For the same molecule, the IC50 at 72 h worked out at 20 µg/mL in data set [4] (setting [14]) and 97.1 µM in data set [4] (setting [15]).
Turning to `CC1(C)CCCC2(C)OC(=O)C=C12` (stereo not shown) [Dihydroactinidiolide (1), Dihydroactinidiolide], the IC50 in data set [1] (setting [8]) was found to be 5 µg/mL; in data set [1] (setting [9]), 27.8 µM; in data set [2] (setting [10]), 30 µg/mL; in data set [2] (setting [11]), 167 µM; in data set [3] (setting [12]), 40 µg/mL; in data set [3] (setting [13]), 222 µM. Also, the half-inhibitory concentration (IC50) is 6.7 µg/mL in data set [5] (setting [16]); 37.2 µM in data set [5] (setting [17]); 97 µg/mL and 539 µM in data set [6] (Homo sapiens, A549, 72 h). The figures for the IC50 at 72 h in data set [4] (setting [14]) and in data set [4] (setting [15]) were 91.3 µg/mL and 507 µM, respectively.
As to `COc1cccc2c1C(=O)c1c(O)c3c(c(O)c1C2=O)C[C@@](O)(C(=O)CO)C[C@@H]3O[C@H]1C[C@H](N)[C@H](O)[C@H](C)O1` [Doxorubicin, reference compound], the IC50 was 0.36 µg/mL in data set [1] (setting [8]); 0.663 µM in data set [1] (setting [9]); 0.006 µg/mL in data set [3] (setting [12]); 0.011 µM in data set [3] (setting [13]); 0.013 µg/mL in data set [5] (setting [16]); 0.023 µM in data set [5] (setting [17]). The IC50 in data set [6] (Homo sapiens, A549, 72 h) was 0.22 µg/mL and 401 nM. The IC50 at 72 h in data set [4] (setting [14]) was 0.55 µg/mL; in data set [4] (setting [15]), 1.01 µM.
In the case of `Cc1c(C)c2c(c(C)c1O)CC[C@@](C)(CCC[C@H](C)CCC[C@H](C)CCCC(C)C)O2` [α-tocopherol (6), α-tocopherol], the IC50 in data set [1] (setting [8]) was 31 µg/mL; in data set [1] (setting [9]) it was 72.1 µM; in data set [2] (setting [10]), 7.5 µg/mL; in data set [2] (setting [11]), 17.4 µM; in data set [3] (setting [12]), 6 µg/mL; in data set [3] (setting [13]), 14 µM. Besides, the half-maximal inhibitory concentration (IC50) in data set [5] (setting [16]) was 8 µg/mL; in data set [5] (setting [17]), 18.6 µM; in data set [6] (Homo sapiens, A549, 72 h), 6 µg/mL and 13.9 µM. Further, the IC50 at 72 h in data set [4] (setting [14]) was determined as 30.5 µg/mL; in data set [4] (setting [15]), 70.9 µM.
`CC[C@H](CC[C@@H](C)[C@H]1CC[C@H]2[C@@H]3CC=C4C[C@@H](O)CC[C@]4(C)[C@H]3CC[C@]12C)C(C)C` [β -sitosterol (4), β-sitosterol]: the half-maximal inhibitory concentration (IC50) is > 100 µg/mL and > 242 µM in data set [1] (Homo sapiens, HCT-116, 72 h); 72 µg/mL and 174 µM in data set [2] (Homo sapiens, MCF7, 72 h); 62 µg/mL and 150 µM in data set [3] (Homo sapiens, Ca-Ski); > 100 µg/mL and > 242 µM in data set [5] (Homo sapiens, KB); 78 µg/mL and 188 µM in data set [6] (Homo sapiens, A549, 72 h). Further, the IC50 at 72 h in data set [4] (MRC-5 cells) is greater than 100 µg/mL; in data set [4] (MRC-5 cells, value in parentheses), greater than 242 µM.
Regarding phytol [Phytol (7)], in data set [1] (HCT 116 cells, 72 h, Neutral Red), the “Cytotoxicity (IC50) HCT 116” value is on record as 100 µg/mL. Moreover, the IC50 in data set [1] (HCT 116 cells, 72 h, Neutral Red, value in parentheses) was determined as 338 µM; in data set [2] (MCF7 cells, 72 h, Neutral Red, value in parentheses) it was 115 µM; in data set [3] (CasKi cells, Neutral Red, value in parentheses), 60.8 µM; in data set [7] (value in parentheses), 251 µM; in data set [5] (KB cells, Neutral Red, value in parentheses), 24 µM; in data set [6] (A549 cells, 72 h, Neutral Red, value in parentheses) it was 105 µM. The “Cytotoxicity (IC50) MCF7” value in data set [2] (MCF7 cells, 72 h, Neutral Red) is given as 34 µg/mL. In data set [3] (CasKi cells, Neutral Red), the “Cytotoxicity (IC50) CasKi” value amounted to 18 µg/mL. Also, the “Cytotoxicity (IC50) MRC-5” value in data set [7] is given as 74.3 µg/mL. For the same molecule, the “Cytotoxicity (IC50) KB” value in data set [5] (KB cells, Neutral Red) came to 7.1 µg/mL. Further, the “Cytotoxicity (IC50) A549” value in data set [6] (A549 cells, 72 h, Neutral Red) worked out at 31 µg/mL.
